In ChEMBL document CHEMBL4613224, “Synthesis, in-vitro antiprotozoal activity and molecular docking study of isothiocyanate derivatives” (Bioorg Med Chem, 2020):
Activity calls are given as the source filed them. The rule behind the calls is not given here.

Key:
L6 = experiment: Cytotoxicity against rat L6 cells assessed as reduction in cell viability measured after 72 hrs by Alamar blue based inverted microscopy analysis; conditions: L6, 72 h, read-out: IC50
Trypanosoma cruzi [1] = experiment: Antitrypanosomal activity against Trypanosoma cruzi Tulahuen C4 trypomastigotes infected in rat L6 cells assessed as parasite growth inhibition measured after 96 hrs by inverted microscopy analysis; assay type: functional, organism-based; conditions: Tulahuen C4, L6, 96 h
[2] = Selectivity index, ratio of IC50 for rat L6 cells assessed as reduction in cell viability measured after 72 hrs by Alamar blue based inverted microscopy analysis to IC50 for Leishmania donovani MHOM-ET-67/L82 axenic amastigotes assessed as parasite growth inhibition measured after 72 hrs by Alamar blue based inverted microscopy analysis; assay type: toxicity; conditions: L6 cells, read-out: Ratio IC50
[3] = Selectivity index, ratio of IC50 for rat L6 cells assessed as reduction in cell viability measured after 72 hrs by Alamar blue based inverted microscopy analysis to IC50 for Trypanosoma cruzi Tulahuen C4 trypomastigotes infected in rat L6 cells assessed as parasite growth inhibition measured after 96 hrs by inverted microscopy analysis; assay type: toxicity; conditions: read-out: Ratio IC50
Leishmania donovani [4] = experiment: Antileishmanial activity against Leishmania donovani MHOM-ET-67/L82 axenic amastigotes assessed as parasite growth inhibition at 2 to 10 ug/ml measured after 72 hrs by Alamar blue based inverted microscopy analysis relative to control; assay type: functional
[5] = Selectivity index, ratio of IC50 for rat L6 cells assessed as reduction in cell viability measured after 72 hrs by Alamar blue based inverted microscopy analysis to IC50 for bloodstream Trypanosoma brucei rhodesiense STIB900 assessed as parasite growth inhibition measured after 70 hrs by Alamar blue assay; assay type: toxicity; conditions: read-out: Ratio IC50
[6] = tested on: Trypanosoma brucei rhodesiense; experiment: Antitrypanosomal activity against bloodstream Trypanosoma brucei rhodesiense STIB900 assessed as parasite growth inhibition at 2 ug/ml measured after 70 hrs by Alamar blue assay relative to control; assay type: functional; conditions: STIB900, 70 h
[7] = tested on: Trypanosoma brucei rhodesiense; experiment: Antitrypanosomal activity against bloodstream Trypanosoma brucei rhodesiense STIB900 assessed as parasite growth inhibition measured after 70 hrs by Alamar blue assay; assay type: functional, organism-based; conditions: STIB900, 70 h
Trypanosoma cruzi [8] = experiment: Antitrypanosomal activity against Trypanosoma cruzi Tulahuen C4 trypomastigotes infected in rat L6 cells assessed as parasite growth inhibition at 2 ug/ml measured after 96 hrs by inverted microscopy analysis relative to control; assay type: functional; conditions: for inhibition at 2 µg/mL: Tulahuen C4, L6, 96 h
Leishmania donovani [9] = experiment: Antileishmanial activity against Leishmania donovani MHOM-ET-67/L82 axenic amastigotes assessed as parasite growth inhibition measured after 72 hrs by Alamar blue based inverted microscopy analysis; assay type: functional, organism-based; conditions: MHOM-ET-67/L82, 72 h
Leishmania donovani [10] = experiment: Potency index, ratio of miltefosine IC50 to test compound IC50 for antileishmanial activity against Leishmania donovani MHOM-ET-67/L82 axenic amastigotes assessed as parasite growth inhibition measured after 72 hrs by Alamar blue based inverted microscopy analysis; assay type: functional
Plasmodium falciparum [11] = experiment: Antiplasmodial activity against Plasmodium falciparum NF54 measured after 24 hrs in presence of [3H] hypoxanthine by liquid scintillation counter analysis; assay type: functional, organism-based
[12] = Selectivity index, ratio of IC50 for rat L6 cells assessed as reduction in cell viability measured after 72 hrs by Alamar blue based inverted microscopy analysis to IC50 for Plasmodium falciparum NF54 measured after 24 hrs in presence of [3H] hypoxanthine by liquid scintillation counter analysis; assay type: toxicity; conditions: read-out: Ratio IC50
[13] = tested on: Trypanosoma brucei brucei; experiment: Antitrypanosomal activity against Trypanosoma brucei brucei assessed as parasite growth inhibition; assay type: functional, organism-based
Plasmodium falciparum [14] = experiment: Antiplasmodial activity against Plasmodium falciparum K1 assessed as reduction in parasite growth by [3H]-hypoxanthine incorporation assay; assay type: functional, organism-based

SMILES	IC50 (L6)	IC50 (Trypanosoma cruzi [1])	selectivity ratio at 72 h [2]	selectivity ratio at 72 h [3]	inhibition (INH) (Leishmania donovani [4])	selectivity ratio at 72 h [5]	inhibition at 2 µg/mL [6]	IC50 [7]	inhibition (Trypanosoma cruzi [8])	IC50 (Leishmania donovani [9])	Ratio IC50 (Leishmania donovani [10])	IC50 (Plasmodium falciparum [11])	selectivity ratio at 72 h [12]	inhibition at 2 µg/mL (Trypanosoma cruzi [8])	IC50 [13]	IC50 (Plasmodium falciparum [14])
O=C(Cn1ccnc1[N+](=O)[O-])NCc1ccccc1 [BENZNIDAZOLE]	> 380 µM	2410 nM	196	> 158	–	–	–	–	–	–	–	–	–	–	–	–
C[C@@H](CCCN=C=S)[C@H]1CC[C@H]2[C@@H]3CC[C@@H]4C[C@H](O)CC[C@]4(C)[C@H]3C[C@H](O)[C@]12C	3.6 µM	–	9.9	–	>90%	3.3	> 50%	1100 nM	inactive	400 nM	2	3.4 µM	1.1	–	–	–
COc1ccc2c(c1OC)CO[C@@H]2[C@H]1c2c(cc3c(c2OC)OCO3)CCN1[C@@H](CN)c1ccc(F)cc1	38.8 µM	10600 nM	–	3.7	–	29.3	> 50%	1300 nM	–	–	–	2.7 µM	14.5	53%	–	–
CC(C)=C[C@H]1C[C@H](/C=C/c2[nH]c3ccccc3c2CCN(C)C)n2c1c(CCN(C)C)c1ccccc12	–	–	–	–	–	–	–	–	–	–	–	–	–	–	6.2 µM	–
CNCCc1c([C@H]2[C@H]3[C@H](C=C(C)CC3(C)C)c3c(CCNC)c4ccccc4n32)[nH]c2ccccc12	–	–	–	–	–	–	–	–	–	–	–	–	–	–	2.8 µM	–
COc1ccc2c(c1OC)CO[C@@H]2[C@H]1c2c(cc3c(c2OC)OCO3)CCN1C(CN=C=S)c1cccnc1 (some centres undefined)	7.1 µM	1900 nM	8	3.8	>90%	2.6	> 50%	2700 nM	–	900 nM	–	2.5 µM	2.9	100%	–	–
COc1ccc([C@H](O)[C@H]2c3c(cc4c(c3OC)OCO4)CCN2C)c(CO)c1OC	–	–	–	–	–	–	–	–	–	–	–	–	–	–	–	8 µM
C[C@@H](CCCN=C=S)[C@H]1CC[C@H]2[C@@H]3CC[C@@H]4C[C@H](O)CC[C@]4(C)[C@H]3CC[C@]12C	4.5 µM	–	0.8	–	>90%	0.5	> 50%	9700 nM	inactive	5400 nM	–	4.1 µM	1.1	–	–	–
